From ChEMBL document CHEMBL1125178, “Electrophilic gamma-lactone kappa-opioid receptor probes. Analogues of 2'-hydroxy-2-tetrahydrofurfuryl-5,9-dimethyl-6,7-benzomorphan diastereomers” (J Med Chem, 1991)

Experiments:
[1] = molecular target: Kappa-type opioid receptor (Cavia porcellus, UniProt P41144); experiment: Displacement of [3H]bremazocine from opioid receptor kappa of guinea pig membrane.
[2] = Displacement of [3H]bremazocine from opioid receptor of guinea pig membrane; parameters: species or system Cavia porcellus
[3] = molecular target: Opioid receptors; mu/kappa/delta (Homo sapiens, UniProt P41145+P41143+P35372); experiment: Displacement of 0.5 nM [3H]bremazocine from opioid receptor sites in guinea pig membranes; assay type: cell membranes, Cavia porcellus; settings: target entry is the homologue from another species

Kappa-type opioid receptor, sequence (P41144 whole entry): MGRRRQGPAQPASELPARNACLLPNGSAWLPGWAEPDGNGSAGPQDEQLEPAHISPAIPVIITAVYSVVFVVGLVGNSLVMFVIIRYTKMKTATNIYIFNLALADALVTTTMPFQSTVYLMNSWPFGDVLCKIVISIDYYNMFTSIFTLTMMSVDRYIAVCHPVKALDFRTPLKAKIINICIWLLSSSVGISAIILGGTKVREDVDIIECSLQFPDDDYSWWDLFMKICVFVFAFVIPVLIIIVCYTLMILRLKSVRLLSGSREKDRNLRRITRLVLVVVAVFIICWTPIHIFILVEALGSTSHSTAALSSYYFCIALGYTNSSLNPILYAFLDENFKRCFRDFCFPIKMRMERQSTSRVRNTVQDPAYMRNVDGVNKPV

C[C@H]1[C@H]2Cc3ccc(O)cc3[C@@]1(C)CCN2C[C@H]1C=CC(=O)O1
IC50 [1]: 74 nM | IC50 [2]: 89 nM

C[C@H]1[C@H]2Cc3ccc(O)cc3[C@]1(C)CCN2Cc1ccco1
IC50 [1]: 5.7 nM | IC50 [2]: 6.8 nM

CC[C@H]1[C@H]2Cc3ccc(O)cc3[C@@]1(CC)CCN2Cc1ccoc1
IC50 [1]: 1.6 nM | IC50 [2]: 2.9 nM

C[C@@H]1[C@@H]2Cc3ccc(O)cc3[C@]1(C)CCN2C[C@@H]1CCCO1
IC50 [3]: 1000 nM

C[C@H]1[C@H]2Cc3ccc(O)cc3[C@@]1(C)CCN2C[C@H]1CCC(=O)O1
IC50 [1]: 400 nM | IC50 [2]: 620 nM

C=C1C[C@H](CN2CC[C@]3(C)c4cc(O)ccc4C[C@@H]2[C@@H]3C)OC1=O
IC50 [2]: > 3000 nM

O=C1CC[C@@]2(O)[C@H]3Cc4ccc(O)c5c4[C@@]2(CCN3CC2CC2)[C@H]1O5 [NALTREXONE]
IC50 [2]: 5.7 nM

C[C@H]1[C@H]2Cc3ccc(O)cc3[C@@]1(C)CCN2C[C@H]1CCCO1
IC50 [1]: 70 nM | IC50 [2]: 84 nM

C=C1C[C@H](CN2CC[C@@]3(C)c4cc(O)ccc4C[C@H]2[C@H]3C)OC1=O
IC50 [2]: 1800 nM

C[C@H]1[C@H]2Cc3ccc(O)cc3[C@@]1(C)CCN2C[C@@H]1CCCO1
IC50 [1]: 1.7 nM | IC50 [2]: 2.3 nM

C=C1C[C@@H](CN2CC[C@@]3(C)c4cc(O)ccc4C[C@H]2[C@H]3C)OC1=O
IC50 [3]: 1300 nM

C[C@H]1[C@H]2Cc3ccc(O)cc3[C@@]1(C)CCN2C[C@@H]1C=CC(=O)O1
IC50 [1]: 5.4 nM | IC50 [2]: 7.4 nM

C[C@H]1[C@H]2Cc3ccc(O)cc3[C@@]1(C)CCN2C[C@@H]1CCC(=O)O1
IC50 [1]: 7.3 nM | IC50 [2]: 12 nM

CC[C@@H]1[C@@H]2Cc3ccc(O)cc3[C@]1(CC)CCN2Cc1ccoc1
IC50 [2]: 2200 nM

C=C1C[C@@H](CN2CC[C@]3(C)c4cc(O)ccc4C[C@@H]2[C@@H]3C)OC1=O
IC50 [1]: 400 nM | IC50 [2]: 380 nM

C=CCN1CC[C@]23c4c5ccc(O)c4O[C@H]2C(=O)CC[C@@]3(O)[C@H]1C5 [NALOXONE]
IC50 [2]: 23 nM
